Key:
[1] = Intrinsic dissolution rate, low-volume rotating disc method; format: physicochemical; conditions: salt made at 1 g scale from ethanol; disc 0.07 cm^2, 500 rpm, 50 mL USP Phosphate buffer pH 6.8 at 37° C
Experimental: The salt manufactured at 1 g scale from ethanol was further investigated for its intrinsic dissolution rate and compared to the free base of 4-(5-{(1R)-1-[5-(3-chlorophenyl)isoxazol-3-yl]ethoxy}-4-methyl-4H-1,2,4-triazol-3-yl)pyridine. […] Dissolution rates of the base and salt were measured with a low-volume rotating disc method. Discs were compressed from pure compound and centrically mounted in a disc holder with an exposed area of 0.07 cm^2. The disc holder rotated at 500 rpm immersed in 50 mL USP Phosphate buffer pH 6.8 at 37° C. The compound was analysed UV-Online by a Spectrophotometer with a flow cell and a peristaltic pump with continuous circulation.

[2] = Moisture sorption / deliquescence of the salts at relative humidity; format: physicochemical

Row | intrinsic dissolution rate of the salt as compared to the free base [1] [times] | relative humidity at which moisture sorption is increased ([2]; first batch from ethanol) | relative humidity at which the salt deliquesces ([2]; salt manufactured again from ethanol at 68° C) | relative humidity at which the salt deliquesces ([2]; salt recrystallised from the oiled salt in ethanol) | Compound
1 | 1000 | 90-95 % RH | – | – | C[C@@H](Oc1nnc(-c2ccncc2)n1C)c1cc(-c2cccc(Cl)c2)on1.Cl [Example 17, 4-(5-{(1R)-1-[5-(3-chlorophenyl)isoxazol-3-yl]ethoxy}-4-methyl-4H-1,2,4-triazol-3-yl)pyridine hydrochloride]
2 | – | – | 70-80 % RH | 60-70 % relative humidity | C[C@@H](Oc1nnc(-c2ccncc2)n1C)c1cc(-c2cccc(Cl)c2)on1.O=S(=O)(O)O [Example 18, 4-(5-{(1R)-1-[5-(3-chlorophenyl)isoxazol-3-yl]ethoxy}-4-methyl-4H-1,2,4-triazol-3-yl)pyridine sulphate]

From patent publication US20080227824A1, “5-(Phenylisoxazolylethoxy) - Triazol- 3 -Yl Substituted Pyridine Compounds for the Treatment of Neurological, Psychiatric or Pain Disorders” (Astrazeneca AB, priority 2005, published 2008)
